Data published in patent publication US6436990B1, “6-methoxy-2-naphthylacetic acid prodrugs” (Nobex Corporation, priority 1999, dated 2002).

What was measured:
Rat Paw Edema = experiment: Rat Paw Edema; assay type: in vivo; conditions: for % Inhibition: one dose per compound (Dose column, mg/kg): Nabumetone 79.0, 6-MNA 75.0, Indomethacin 10.0, Example 1 94.3, Example 2 121.0, Example 3 94.9, Example 4 121.0
[1] = oral administration; cited from earlier work

melting point | Structure (SMILES) | ED50 (Rat Paw Edema) [mg/kg] | % Inhibition (Rat Paw Edema) [%] | share of orally administered nabumetone transferred in vivo into 6MNA [1]
122 to 124 °C | COc1ccc2cc(CC(=O)OCC(C)=O)ccc2c1 [Example 1, (6-methoxy-naphthalen-2-yl)-acetic acid 2-oxo-propyl ester] | 33.9 | 65 | –
– | COc1ccc2cc(CC(=O)OCCOCCO[N+](=O)[O-])ccc2c1 [Example 2, (6-Methoxy-naphthalen-2-yl)-acetic acid 2-(2-nitrooxy-ethoxy)-ethyl ester] | – | 57 | –
190 to 192 °C (dec.) | COc1ccc2cc(CC(=O)OCC(=O)O)ccc2c1 [Example 3, (6-methoxy-naphthalen-2-yl)-acetic acid carboxymethyl ester] | – | 58 | –
38 to 40 °C | CCOC(=O)COC(=O)Cc1ccc2cc(OC)ccc2c1 [Example 4, (6-methoxy-naphthalen-2-yl)-acetic acid ethoxycarbonylmethyl ester] | – | 38 | –
– | COc1ccc2cc(CC(=O)O)ccc2c1 [Example 6-MNA, 6-methoxy-2-naphthylacetic acid] | – | 45 | –
129 °C | COCCNC(=O)Cc1ccc2cc(OC)ccc2c1 [Example 8, N-(2-methoxy-ethyl)-2-(6-methoxy-naphthalen-2-yl)-acetamide] | – | – | –
234 to 236 °C | COc1ccc2cc(CC(N)=O)ccc2c1 [Example 10, 2-(6-methoxy-naphthalen-2-yl)-acetamide] | – | – | –
– | COc1ccc2c(c1)c(CC(=O)O)c(C)n2C(=O)c1ccc(Cl)cc1 [Indomethacin, reference compound] | – | 51 | –
– | COc1ccc2cc(CCC(C)=O)ccc2c1 [Nabumetone, nabumetone, reference compound] | 35.9 | 60 | about 35%
